The record followed here is article PMC9831672 (Journal of the American Chemical Society, 2022).

The target in the test is NotF (Aspergillus sp. MF297-2, UniProt E0Y3X1). It is filed as binding. The conditions noted are these: ternary complex with brevianamide F; non-hydrolysable DMAPP analogue.
Sequence of NotF (E0Y3X1 whole entry): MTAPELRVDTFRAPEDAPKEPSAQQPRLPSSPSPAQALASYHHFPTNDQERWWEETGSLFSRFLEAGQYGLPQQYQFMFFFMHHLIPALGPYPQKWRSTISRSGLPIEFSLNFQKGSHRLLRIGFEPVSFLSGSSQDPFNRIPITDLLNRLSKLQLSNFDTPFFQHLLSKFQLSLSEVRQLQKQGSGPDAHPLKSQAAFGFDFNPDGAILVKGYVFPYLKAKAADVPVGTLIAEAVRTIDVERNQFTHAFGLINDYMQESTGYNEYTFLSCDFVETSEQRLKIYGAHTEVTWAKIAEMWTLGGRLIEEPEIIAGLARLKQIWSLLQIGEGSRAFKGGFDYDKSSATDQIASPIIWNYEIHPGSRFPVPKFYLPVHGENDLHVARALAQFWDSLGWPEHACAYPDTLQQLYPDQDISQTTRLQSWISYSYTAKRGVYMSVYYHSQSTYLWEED

As to `CC(C)=CCSP(=O)(O)OP(=O)(O)O` [dimethylallyl S-thiolodiphosphate], the “X-ray crystal structure (3.0 A), co-crystallisation” value was “a non-hydrolysable DMAPP analog, dimethylallyl S-thiolodiphosphate (DMSPP), was determined”.
